Where “and” joins values, the source holds several entries; their conditions need not be identical. Equal entries are not always repeated.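 Values below derive from 48-hour exposures of cells grown in 96-well plates, with endpoints linearly interpolated between the two concentrations bracketing the appropriate inhibition level. GI50 = concentration required for 50% inhibition of growth. TGI denotes the concentration required for complete inhibition of growth.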

This note sets out measurements from PubChem BioAssay (NCI).

What all share (assay): growth of human tumour cells (NCI), 48 h
In test [1] the test system is IGROV1 ovarian.
Test [2] deals with NCI-H460 lung.
For test [3], the system named is 786-0 renal.
The test system of test [4] is SK-OV-3 ovarian.
Test [5] relates to OVCAR-5 ovarian.
The subject of test [6] is M14 melanoma.
Test [7] deals with CAKI-1 renal.
Test [8] has as its system BT-549 breast.
Test [9] has as its system U251 CNS.
For test [10], the system named is HCC-2998 colon.

Turning to `Cn1c(=O)c2[nH]c(SCCN3CCOCC3)nc2n(C)c1=S`, the TGI in test [1], in test [2], in test [3], in test [4], in test [5] and in [6] was over 100 µM throughout. Moreover, the TGI in test [7], in test [8] and in test [9] was over 100 µM throughout.

As for `COC(=O)CCC12CCC(=O)C1[C@@H](C(=O)OC)C[C@H]2C(=O)OC` (some centres not stated), the TGI in [1], in test [2], in test [3], in test [4], in test [5] and in test [6] was over 100 µM each time. The TGI in test [10], in test [7] and in [9] was over 100 µM in each case.

Consider `COc1ccc2c(c1OC)-c1c(c3ccc([N+](=O)[O-])cc3c(=O)n1CCCBr)C2=O`, for which the GI50 in test [2] is 6.64 µM; in test [3] it was 21.6 µM; in test [4] it was over 100 µM; in [5], over 100 µM; in [6] it was 27.2 µM; in test [7] it was 7.31 µM. Also, the GI50 in [8] is 50.8 µM. Further, the TGI in [2] was 68.8 µM; in test [3], 52.1 µM; in [4], over 100 µM; in test [5], over 100 µM; in test [6], over 100 µM; in test [7], over 100 µM. In test [8], this compound came in with a TGI of over 100 µM.

In the case of `Cc1c2c(cc3c1C(=O)C(=O)C1=C3OC[C@@H]1C)C(C)(C)CCC2`, the TGI worked out at 49.8 µM in [1]; 28.1 µM in test [2]; 75.9 µM in [3]; 82.8 µM in [4]; 40.2 µM in test [5]; 26.9 µM in test [6]. Moreover, the TGI in [10] was 42.4 µM; in test [7], over 100 µM; in test [9], 34.4 µM.

Regarding `O=C1C(=O)N(c2ccc(Cl)cc2)C(=O)C(=O)C1c1nc2ccccc2s1`, the TGI in [1], in test [2], in test [3], in test [4], in test [5] and in test [6] was over 100 µM each time. Also, the TGI in test [10], in test [7] and in test [9] was over 100 µM each time.

For `COc1ccc(-c2cc(C(=O)Nc3cc(C(F)(F)F)cc(C(F)(F)F)c3)c3ccccc3n2)cc1`, the TGI in test [1] is 44.9 µM; in [2], 19.4 µM; in test [3], 28.1 µM; in test [5], over 100 µM; in test [6] it was 25 µM; in test [10] it was 29.7 µM. In addition, the TGI in test [7] worked out at 25.5 µM; in test [9] it was 15.5 µM.

Turning to `Cc1ccc(Oc2ccccc2N)cc1`, the TGI in test [1] was over 100 µM; in test [2] it was over 100 µM; in [3], 86.8 µM; in test [4] it was over 100 µM; in [5] it was over 100 µM; in test [6] it was over 100 µM. For the same compound, the TGI in test [10] worked out at 34.2 µM; in test [9] it was 22.1 µM.

For the compound `Clc1cccc(N2CCN(CCCN3CCc4c([nH]c5ccccc45)C3c3cccnc3)CC2)c1` (configuration not stated), the TGI in test [1] is over 100 µM; in test [2], 23.7 µM; in [3], 20.2 µM; in test [4], 32.2 µM; in [5] it was 23.9 µM; in test [6], 4.96 µM and 5.78 µM. The values for the TGI in [10], in test [7] and in test [9] were 11.9 µM, 25.7 µM and 23.9 µM, respectively. Further, the GI50 in test [2] was 7.85 µM; in test [3], 7.08 µM; in test [5] it was 8.66 µM; in [6] it was 2.47 µM; in [10], 3.06 µM.

Take `[O-]c1ccccc1C=Nc1ccc2c(c1)CCC2.[O-]c1ccccc1C=Nc1ccc2c(c1)CCC2.[O]=[U+2]=[O]`: the GI50 in test [1] was 41 µM; in [2], 47.3 µM; in test [3] it was 40.3 µM; in [4] it was over 100 µM; in test [5], over 100 µM; in test [6], over 100 µM. Besides, the GI50 in test [10] was 57.1 µM; in test [7] it was over 100 µM. Also, the TGI in test [1], in [2], in [3], in [4], in test [5] and in [6] was over 100 µM in each case. For the same compound, the TGI in test [10] and in test [7] was over 100 µM throughout.

Turning to `NNc1cnn(-c2ccccc2)c(=O)c1Cl`, the TGI in [1], in [2], in test [3], in [4], in test [5] and in test [6] was over 100 µM each time. Moreover, the TGI in test [7] and in test [9] was over 100 µM in each case.

For the compound `Cc1c(C(=O)/C=C/C=C/c2ccccc2)[n+](=O)c2ccccc2n1[O-]`, the TGI was 65.5 µM in test [1]; 61.5 µM in [2]; 52.7 µM in test [3]; over 100 µM in test [4]; over 100 µM in test [5]; 45.9 µM in [6]. The figures for the TGI in [10], in test [7] and in test [9] were 36.7 µM, over 100 µM and over 100 µM, respectively.

For `CC(C)(O)/C=C/C(=O)[C@](C)(O)[C@H]1[C@H](O)C[C@@]2(C)[C@@H]3CC=C4[C@@H](C[C@H](O)C(=O)C4(C)C)[C@]3(C)C(=O)C[C@]12C`, the GI50 in test [1] was 0.211 µM; in [2], 0.0509 µM; in test [3] it was 0.218 µM; in test [4] it was 0.566 µM; in [5] it was 0.692 µM; in [6], 0.0563 µM. In addition, the GI50 was 0.371 µM and 0.647 µM in [10]; 1.85 µM in [7]; 0.105 µM in test [9]. In addition, the TGI in [1] was 0.479 µM and 1.22 µM; in [2] it was 20.4 µM; in [3] it was 0.939 µM and 0.362 µM; in test [4], 0.977 µM and 4.71 µM; in test [6] it was 5.94 µM; in test [10], 8.67 µM. For the same compound, in [9], the TGI is 0.419 µM and 0.322 µM.

Regarding `O=C(O)c1cc(=O)c2c([nH]c3ccccc32)s1`, the TGI in [1], in test [2], in test [3], in test [4], in test [5] and in test [6] was over 100 µM throughout. The TGI in test [10] and in test [7] was over 100 µM each time.
